In PubChem BioAssay AID1963436 (Molecular Pharmacology Branch, DTP, NCI, 2024):

Test system: OVCAR-5 complex spheroid (HUVEC/MSC), viability % T/C
Assay: Anticancer human tumor OVCAR-5 cell line growth inhibition [Asc];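 also: spheroids exposed to agents for 7 days before readout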;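 as to viability, T/C: 100% = DMSO vehicle-treated wells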
Conditions: for IC50: curve of first compound; for viability, T/C: stronger effect = lower value
Method in brief: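 Tumor cells were grown as complex spheroids with human endothelial cells (HUVEC) and human mesenchymal stem cells as stroma. Agents were tested alone and in combination, in half-log steps down from the clinical Cmax, or from 10 microM where Cmax was unknown.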

[1] = second compound 0.03 µM, first compound 0.0316 µM
[2] = second compound 0.03 µM, first compound 0.1 µM
[3] = second compound 0.03 µM, first compound 0.316 µM
[4] = second compound 0.03 µM, first compound 1 µM
[5] = second compound 0.0949 µM, first compound 0.0316 µM
[6] = second compound 0.0949 µM, first compound 0.1 µM
[7] = second compound 0.0949 µM, first compound 0.316 µM
[8] = second compound 0.0949 µM, first compound 1 µM
[9] = second compound 0.3 µM, first compound 0.0316 µM
[10] = second compound 0.3 µM, first compound 0.1 µM
[11] = second compound 0.3 µM, first compound 0.316 µM
[12] = second compound 0.3 µM, first compound 1 µM
[13] = second compound 0.949 µM, first compound 0.0316 µM
[14] = second compound 0.949 µM, first compound 0.1 µM
[15] = second compound 0.949 µM, first compound 0.316 µM
[16] = second compound 0.949 µM, first compound 1 µM
[17] = second compound 3 µM, first compound 0.0316 µM
[18] = second compound 3 µM, first compound 0.1 µM
[19] = second compound 3 µM, first compound 0.316 µM
[20] = second compound 3 µM, first compound 1 µM

C#Cc1c(F)ccc2cc(O)cc(-c3ncc4c(N5CC6CCC(C5)N6)nc(OCC56CCCN5CC(F)C6)nc4c3F)c12 (stereo not given) + CCN1C(C(=O)NC23CCC(C(=O)O)(CC2)CC3)C(c2cccc(Cl)c2F)C2(C(=O)Nc3cc(Cl)ccc32)C12CCCCC2
IC50 (second compound 0.03 µM): 6.75 µM
IC50 (second compound 0.0949 µM): 6.76 µM
IC50 (second compound 0.3 µM): 6.72 µM
IC50 (second compound 0.949 µM): 6.51 µM
IC50 (second compound 3 µM): 5.41 µM
viability, T/C [1]: 108%
viability, T/C [2]: 108%
viability, T/C [3]: 83.3%
viability, T/C [4]: 78%
viability, T/C (second compound 0.03 µM, first compound 3.16 µM): 73%
viability, T/C (second compound 0.03 µM, first compound 10 µM): 39.1%
viability, T/C [5]: 106%
viability, T/C [6]: 105%
viability, T/C [7]: 91.1%
viability, T/C [8]: 88.8%
viability, T/C (second compound 0.0949 µM, first compound 3.16 µM): 66.5%
viability, T/C (second compound 0.0949 µM, first compound 10 µM): 40.8%
viability, T/C [9]: 101%
viability, T/C [10]: 107%
viability, T/C [11]: 106%
viability, T/C [12]: 74.8%
viability, T/C (second compound 0.3 µM, first compound 3.16 µM): 66.2%
viability, T/C (second compound 0.3 µM, first compound 10 µM): 42.4%
viability, T/C [13]: 99%
viability, T/C [14]: 109%
viability, T/C [15]: 102%
viability, T/C [16]: 84.4%
viability, T/C (second compound 0.949 µM, first compound 3.16 µM): 65.5%
viability, T/C (second compound 0.949 µM, first compound 10 µM): 41.3%
viability, T/C [17]: 104%
viability, T/C [18]: 107%
viability, T/C [19]: 107%
viability, T/C [20]: 79.5%
viability, T/C (second compound 3 µM, first compound 3.16 µM): 61.2%
viability, T/C (second compound 3 µM, first compound 10 µM): 39.6%

CNC(C)C(=O)NC1CN(S(=O)(=O)c2cccc(S(=O)(=O)N3CCC4CCC(C(=O)NC(c5ccccc5)c5ccccc5)N4C(=O)C(NC(=O)C(C)NC)C3)c2)CCC2CCC(C(=O)NC(c3ccccc3)c3ccccc3)N2C1=O (stereo not given) + CCN1C(C(=O)NC23CCC(C(=O)O)(CC2)CC3)C(c2cccc(Cl)c2F)C2(C(=O)Nc3cc(Cl)ccc32)C12CCCCC2
IC50 (second compound 0.03 µM): > 1 µM
IC50 (second compound 0.0949 µM): > 1 µM
IC50 (second compound 0.3 µM): > 1 µM
IC50 (second compound 0.949 µM): > 1 µM
IC50 (second compound 3 µM): > 1 µM
viability, T/C (second compound 0.03 µM, first compound 0.00316 µM): 97.3%
viability, T/C (second compound 0.03 µM, first compound 0.01 µM): 107%
viability, T/C [1]: 86.2%
viability, T/C [2]: 84.7%
viability, T/C [3]: 94.4%
viability, T/C [4]: 75%
viability, T/C (second compound 0.0949 µM, first compound 0.00316 µM): 90.5%
viability, T/C (second compound 0.0949 µM, first compound 0.01 µM): 102%
viability, T/C [5]: 80.7%
viability, T/C [6]: 77.1%
viability, T/C [7]: 78.8%
viability, T/C [8]: 78.3%
viability, T/C (second compound 0.3 µM, first compound 0.00316 µM): 102%
viability, T/C (second compound 0.3 µM, first compound 0.01 µM): 94%
viability, T/C [9]: 84.5%
viability, T/C [10]: 74.7%
viability, T/C [11]: 87.3%
viability, T/C [12]: 95.3%
viability, T/C (second compound 0.949 µM, first compound 0.00316 µM): 109%
viability, T/C (second compound 0.949 µM, first compound 0.01 µM): 102%
viability, T/C [13]: 87.5%
viability, T/C [14]: 70.2%
viability, T/C [15]: 85.1%
viability, T/C [16]: 95%
viability, T/C (second compound 3 µM, first compound 0.00316 µM): 102%
viability, T/C (second compound 3 µM, first compound 0.01 µM): 101%
viability, T/C [17]: 96.7%
viability, T/C [18]: 79.9%
viability, T/C [19]: 84.4%
viability, T/C [20]: 90.8%

Cc1nc(N2CCC3(CC2)COC(C)C3N)c(CO)nc1Sc1ccnc(N)c1Cl (stereo not given) + CCN1C(C(=O)NC23CCC(C(=O)O)(CC2)CC3)C(c2cccc(Cl)c2F)C2(C(=O)Nc3cc(Cl)ccc32)C12CCCCC2
IC50 (second compound 0.03 µM): > 3 µM
IC50 (second compound 0.0949 µM): > 3 µM
IC50 (second compound 0.3 µM): > 3 µM
IC50 (second compound 0.949 µM): > 3 µM
IC50 (second compound 3 µM): > 3 µM
viability, T/C (second compound 0.03 µM, first compound 0.00949 µM): 104%
viability, T/C (second compound 0.03 µM, first compound 0.03 µM): 101%
viability, T/C (second compound 0.03 µM, first compound 0.0949 µM): 79.8%
viability, T/C (second compound 0.03 µM, first compound 0.3 µM): 79.8%
viability, T/C (second compound 0.03 µM, first compound 0.949 µM): 71.4%
viability, T/C (second compound 0.03 µM, first compound 3 µM): 60.6%
viability, T/C (second compound 0.0949 µM, first compound 0.00949 µM): 108%
viability, T/C (second compound 0.0949 µM, first compound 0.03 µM): 97.1%
viability, T/C (second compound 0.0949 µM, first compound 0.0949 µM): 89.4%
viability, T/C (second compound 0.0949 µM, first compound 0.3 µM): 82%
viability, T/C (second compound 0.0949 µM, first compound 0.949 µM): 70.8%
viability, T/C (second compound 0.0949 µM, first compound 3 µM): 56%
viability, T/C (second compound 0.3 µM, first compound 0.00949 µM): 112%
viability, T/C (second compound 0.3 µM, first compound 0.03 µM): 105%
viability, T/C (second compound 0.3 µM, first compound 0.0949 µM): 86.1%
viability, T/C (second compound 0.3 µM, first compound 0.3 µM): 72.4%
viability, T/C (second compound 0.3 µM, first compound 0.949 µM): 64.2%
viability, T/C (second compound 0.3 µM, first compound 3 µM): 60.8%
viability, T/C (second compound 0.949 µM, first compound 0.00949 µM): 107%
viability, T/C (second compound 0.949 µM, first compound 0.03 µM): 105%
viability, T/C (second compound 0.949 µM, first compound 0.0949 µM): 96.3%
viability, T/C (second compound 0.949 µM, first compound 0.3 µM): 73.6%
viability, T/C (second compound 0.949 µM, first compound 0.949 µM): 69.5%
viability, T/C (second compound 0.949 µM, first compound 3 µM): 70.3%
viability, T/C (second compound 3 µM, first compound 0.00949 µM): 104%
viability, T/C (second compound 3 µM, first compound 0.03 µM): 110%
viability, T/C (second compound 3 µM, first compound 0.0949 µM): 99.3%
viability, T/C (second compound 3 µM, first compound 0.3 µM): 79%
viability, T/C (second compound 3 µM, first compound 0.949 µM): 68.4%
viability, T/C (second compound 3 µM, first compound 3 µM): 65.9%

O=C(c1cc(Cc2n[nH]c(=O)c3ccccc23)ccc1F)N1CCN(C(=O)C2CC2)CC1 + CNC(C)C(=O)NC1CN(S(=O)(=O)c2cccc(S(=O)(=O)N3CCC4CCC(C(=O)NC(c5ccccc5)c5ccccc5)N4C(=O)C(NC(=O)C(C)NC)C3)c2)CCC2CCC(C(=O)NC(c3ccccc3)c3ccccc3)N2C1=O
IC50 (second compound 0.01 µM): > 10 µM
IC50 (second compound 0.0316 µM): > 10 µM
IC50 (second compound 0.1 µM): > 10 µM
IC50 (second compound 0.316 µM): > 10 µM
IC50 (second compound 1 µM): > 10 µM
viability, T/C (second compound 0.01 µM, first compound 0.0316 µM): 97.3%
viability, T/C (second compound 0.01 µM, first compound 0.1 µM): 95.8%
viability, T/C (second compound 0.01 µM, first compound 0.316 µM): 87.1%
viability, T/C (second compound 0.01 µM, first compound 1 µM): 96.2%
viability, T/C (second compound 0.01 µM, first compound 3.16 µM): 80.5%
viability, T/C (second compound 0.01 µM, first compound 10 µM): 70.3%
viability, T/C (second compound 0.0316 µM, first compound 0.0316 µM): 81.4%
viability, T/C (second compound 0.0316 µM, first compound 0.1 µM): 88.3%
viability, T/C (second compound 0.0316 µM, first compound 0.316 µM): 81.7%
viability, T/C (second compound 0.0316 µM, first compound 1 µM): 74.6%
viability, T/C (second compound 0.0316 µM, first compound 3.16 µM): 77.9%
viability, T/C (second compound 0.0316 µM, first compound 10 µM): 67.9%
viability, T/C (second compound 0.1 µM, first compound 0.0316 µM): 84.9%
viability, T/C (second compound 0.1 µM, first compound 0.1 µM): 95.6%
viability, T/C (second compound 0.1 µM, first compound 0.316 µM): 77.9%
viability, T/C (second compound 0.1 µM, first compound 1 µM): 74.8%
viability, T/C (second compound 0.1 µM, first compound 3.16 µM): 75.1%
viability, T/C (second compound 0.1 µM, first compound 10 µM): 55.5%
viability, T/C (second compound 0.316 µM, first compound 0.0316 µM): 77.4%
viability, T/C (second compound 0.316 µM, first compound 0.1 µM): 75.5%
viability, T/C (second compound 0.316 µM, first compound 0.316 µM): 80.7%
viability, T/C (second compound 0.316 µM, first compound 1 µM): 75.5%
viability, T/C (second compound 0.316 µM, first compound 3.16 µM): 67.2%
viability, T/C (second compound 0.316 µM, first compound 10 µM): 62%
viability, T/C (second compound 1 µM, first compound 0.0316 µM): 83.5%
viability, T/C (second compound 1 µM, first compound 0.1 µM): 76.1%
viability, T/C (second compound 1 µM, first compound 0.316 µM): 88.9%
viability, T/C (second compound 1 µM, first compound 1 µM): 73.8%
viability, T/C (second compound 1 µM, first compound 3.16 µM): 65.3%
viability, T/C (second compound 1 µM, first compound 10 µM): 55.9%
